Laboratory results from patent publication US11433013B2, “Peptide for preventing skin damage caused by air pollutants and for anti-aging, and use thereof” (CAREGEN CO., LTD., priority 2019, dated 2022).
No end group written: not given here.

System: CYP1A1
Assay: CYP1A1 gene expression by RT-PCR, HaCaT cells treated with pollutants
Assay type: cell-based, human
Procedure: In order to confirm an effect of inhibiting inflow of pollutants into the cells via another method, the cells were treated with TCDD, PM, and CSE, and expression levels of CYP1A1 and COX-2 were confirmed. When the activity of AhR is promoted by the pollutants such as TCDD, the AhR acts as a transcription factor and increases expressions of CYP1A1 and COX-2, and thus a degree of the inflow of the pollutants into the cells and whether the AhR is activated or not may be confirmed by measuring expression levels of CYP1A1 and COX-2 genes. TCDD, PM, and CSE were each used after mixing it with the peptide of the present invention and pre-reacting the mixture on a serum-free media for about 1 hour.
In order to confirm the results of the cells treated with TCDD, first, 78 passages of HaCaT cells were seeded in a 6-well plate at a cell density of 3×10^5/well and cultured for about 16 hours, and then, the culture solution was replaced with a serum-free media, and the resultant was treated with the pre-reacted mixture of TCDD and the peptide for about 2 hours. The treatment included TCDD at a concentration of about 0.1 μM and the peptide at concentrations of about 10 μM, about 50 μM, and about 100 μM, respectively. The negative control was not treated with the peptide but only treated with TCDD, and the positive control was treated with CH223191 at a concentration of about 10 μM and TCDD. The cells were reacted with the mixture for about 2 hours, and RNA was isolated from the resultant. After removing the culture solution, the plate on which the cells were cultured was treated with TRIzol (available from Thermo Fisher Scientific, USA), and a sample including RNA was obtained using a scraper. Then, the sample was treated with chloroform and centrifuged to obtain a supernatant. The supernatant was treated with isopropanol, centrifuged again, and RNA pellets at the bottom were confirmed. Next, the resultant was treated with 70% of ethanol to wash the pellets, and the pellets were sufficiently dried to isolate RNA. […]

## SYSGVLFFLK [SEQ ID NO: 1, SYSGVLFFLK]
CSE about 2%, peptide about 10, 50, 100 μM, about 2 hours (FIG. 2C)
  expression level of CYP1A1: decreased as a concentration of the peptide increased
PM about 25 μg/cm^2, peptide about 10, 50, 100 μM, about 2 hours (FIG. 2B)
  expression level of CYP1A1: decreased as a concentration of the peptide increased
TCDD about 0.1 μM, peptide about 10, 50, 100 μM, about 2 hours (FIG. 2A)
  expression level of CYP1A1: decreased as a concentration of the peptide increased
